Assay results: US20250296959A1, “B7-H3 TARGETING PEPTIDES AND CONSTRUCTS THEREOF” (Mariana Oncology Inc., priority 2024, published 2025)
Starred links: 1 amine or outer side, 2 acyl side, 3 side chain; linkers in the order of their positions; H or OH if unused. Positions of bridges follow the written chain, without caps; N, C: chain ends. Non-standard residues stand in square brackets, D forms with d. Residues, ends and D or L forms follow the SMILES beside them. Groups on a side chain read outwards from the residue. *: point of attachment. X6 = CSCC[C@H](NC(=O)c1ccc(CNC(=O)CN2CCN(CC(=O)O)CCN(CC(=O)O)CCN(CC(=O)O)CC2)cc1)C(=O)N[C@H](C(=O)N[C@@H](CCCCN*)C(=O)O)C(C)C; Ala(piperidin-4-yl) = O=C([C@H](CC1CCN([*:3])CC1)N[*:1])[*:2]; DOTA = O=C(O)CN1CCN(CC(=O)O)CCN(CC(=O)*)CCN(CC(=O)O)CC1; Phe(4-COOH) = N[C@@H](Cc1ccc(C(=O)O)cc1)C(=O)O; Trp(5-F) = N[C@@H](Cc1c[nH]c2ccc(F)cc12)C(=O)O; X1 = C[C@@H](c1ccccc1)[C@H](N[*:1])C(=O)[*:2]; γGlu = O=C(O)[C@H](CCC(=O)[*:2])N[*:1]; Ala(4-THP) = N[C@@H](CC1CCOCC1)C(=O)O; Val(3-OH) = CC(C)(O)[C@H](N)C(=O)O; X14 = CC(C)CC[C@H](NC(N)=O)C(=O)*; pGlu = O=C1CC[C@@H](C(=O)O)N1; Tle = CC(C)(C)[C@H](N)C(=O)O; hLeu = CC(C)CC[C@H](N)C(=O)O; Nle = CCCC[C@H](N)C(=O)O; PEG2 = NCCOCCOCCC(=O)O; Sar = CNCC(=O)O

Target: T1, human 4lg B7-H3 (Homo sapiens, UniProt Q5ZPR3)
T1 sequence (Q5ZPR3 29-534): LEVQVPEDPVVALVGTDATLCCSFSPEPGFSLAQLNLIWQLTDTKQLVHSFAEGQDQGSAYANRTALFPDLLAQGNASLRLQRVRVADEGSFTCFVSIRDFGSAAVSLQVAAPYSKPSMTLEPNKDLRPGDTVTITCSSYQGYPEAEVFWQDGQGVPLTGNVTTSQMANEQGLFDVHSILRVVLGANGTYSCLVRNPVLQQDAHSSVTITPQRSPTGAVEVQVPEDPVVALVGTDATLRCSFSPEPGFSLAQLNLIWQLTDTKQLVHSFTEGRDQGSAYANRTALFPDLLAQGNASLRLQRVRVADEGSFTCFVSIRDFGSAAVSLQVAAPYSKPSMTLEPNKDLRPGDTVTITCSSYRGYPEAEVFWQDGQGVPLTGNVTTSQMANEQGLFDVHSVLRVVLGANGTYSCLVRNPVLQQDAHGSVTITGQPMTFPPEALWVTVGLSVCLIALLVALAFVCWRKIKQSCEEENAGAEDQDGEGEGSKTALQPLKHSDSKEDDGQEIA
Assay: Affinity determination by surface plasmon resonance (SPR) to 4Ig B7-H3
Settings: 4Ig B7-H3

[1] = SPR KD—37° C., 37° C. flow cell temperature
[2] = SPR KD—25° C., 25° C. flow cell temperature

| SMILES | Kd [1] [nM] | Kd [2] [nM] |
| --- | --- | --- |
| CC(=O)N[C@@H](CCC(C)C)C(=O)N[C@@H](Cc1ccc(O)cc1)C(=O)N[C@H]1CSSC[C@@H](C(=O)N[C@@H](Cc2c[nH]c3ccc(F)cc23)C(=O)N[C@@H](Cc2ccccc2)C(=O)N[C@H](C(=O)N[C@H](CCC(=O)O)C(N)=O)C(C)(C)O)NC(=O)[C@H](Cc2ccc(O)cc2)NC(=O)[C@H](C(C)C)NC(=O)[C@H](CC(=O)O)NC(=O)[C@H](CC2CCN(C(=O)CCOCCOCCNC(=O)CN3CCN(CC(=O)O)CCN(CC(=O)O)CCN(CC(=O)O)CC3)CC2)NC(=O)[C@H](CC2CCNCC2)NC(=O)CNC(=O)[C@H](C(C)(C)C)NC1=O [Cpd #458, Ac-hLeu-Y-C-Tbg-G-PipAla-Pip(PEG2-DOTA)Ala-D-V-Y-C-5FW-F-hydroxyVal-dGlu-CONH2] (Ac-[hLeu]YC[Tle]G[Ala(piperidin-4-yl)][Ala(piperidin-4-yl)]([PEG2-DOTA])DVYC[Trp(5-F)]F[Val(3-OH)][dE]-NH2; disulfide 3-11) | < 1 |  |
| CC(C)CC[C@H](NC(N)=O)C(=O)N[C@@H](Cc1ccc(O)cc1)C(=O)N[C@H]1CSSC[C@@H](C(=O)N[C@@H](Cc2c[nH]c3ccc(F)cc23)C(=O)N[C@@H](Cc2ccccc2)C(=O)N[C@H](C(=O)N[C@H](CCCCNC(=O)CN2CCN(CC(=O)O)CCN(CC(=O)O)CCN(CC(=O)O)CC2)C(=O)O)C(C)(C)O)NC(=O)[C@H](Cc2ccc(O)cc2)NC(=O)[C@H](C(C)C)NC(=O)[C@H](CC(=O)O)NC(=O)[C@H](CC2CCOCC2)NC(=O)[C@H](CC2CCNCC2)NC(=O)CNC(=O)[C@H](C(C)(C)C)NC1=O [Cpd #468, urea-hLeu-Y-C-Tbg-G-PipAla-ThpA-D-V-Y-C-5FW-F-hydroxyVal-dLys(DOTA)-COOH] (X14-YC[Tle]G[Ala(piperidin-4-yl)][Ala(4-THP)]DVYC[Trp(5-F)]F[Val(3-OH)][dK](DOTA)-OH; disulfide 2-10) | < 1 |  |
| CC(C)CC[C@H](NC(=O)[C@@H]1CCC(=O)N1)C(=O)N[C@@H](Cc1ccc(O)cc1)C(=O)N[C@H]1CSSC[C@@H](C(=O)N[C@@H](Cc2c[nH]c3ccc(F)cc23)C(=O)N[C@@H](Cc2ccccc2)C(=O)N[C@H](C(=O)N[C@H](CCCCNC(=O)CN2CCN(CC(=O)O)CCN(CC(=O)O)CCN(CC(=O)O)CC2)C(=O)O)C(C)(C)O)NC(=O)[C@H](Cc2ccc(O)cc2)NC(=O)[C@H](C(C)C)NC(=O)[C@H](CC(=O)O)NC(=O)[C@H](CC2CCOCC2)NC(=O)[C@H](CC2CCNCC2)NC(=O)CNC(=O)[C@H](C(C)(C)C)NC1=O [Cpd #477, Pyroglutamate-hLeu-Y-C-Tbg-G-PipAla-ThpA-D-V-Y-C-5FW-F-hydroxyVal-dLys(DOTA)-COOH] ([pGlu][hLeu]YC[Tle]G[Ala(piperidin-4-yl)][Ala(4-THP)]DVYC[Trp(5-F)]F[Val(3-OH)][dK](DOTA)-OH; disulfide 4-12) | 1 to 10 |  |
| CSCC[C@H](NC(=O)c1ccc(CNC(=O)CN2CCN(CC(=O)O)CCN(CC(=O)O)CCN(CC(=O)O)CC2)cc1)C(=O)N[C@H](C(=O)N[C@@H](CCCCNC(=O)[C@@H](NC(=O)[C@H](Cc1ccccc1)NC(=O)[C@H](Cc1c[nH]c2ccc(F)cc12)NC(=O)[C@@H]1CSSC[C@H](NC(=O)[C@H](Cc2ccc(O)cc2)NC(=O)[C@H](CCC(C)C)NC(C)=O)C(=O)N[C@@H](C(C)(C)C)C(=O)NCC(=O)N[C@@H](CC2CCNCC2)C(=O)N[C@@H](CC2CCOCC2)C(=O)N[C@@H](CC(=O)O)C(=O)N[C@@H](C(C)C)C(=O)N[C@@H](Cc2ccc(O)cc2)C(=O)N1)C(C)(C)O)C(=O)O)C(C)C [Cpd #482, Ac-hLeu-Y-C-Tbg-G-PipAla-ThpA-D-V-Y-C-5FW-F-hydroxyVal-εLys(Val-Met-AmBz-DOTA)-COOH] (Ac-[hLeu]YC[Tle]G[Ala(piperidin-4-yl)][Ala(4-THP)]DVYC[Trp(5-F)]F[Val(3-OH)]-X6; disulfide 3-11) | 1 to 10 |  |
| CSCC[C@H](NC(=O)c1ccc(CNC(=O)CN2CCN(CC(=O)O)CCN(CC(=O)O)CCN(CC(=O)O)CC2)cc1)C(=O)N[C@H](C(=O)N[C@@H](CCCCNC(=O)[C@@H](NC(=O)[C@@H](NC(=O)[C@H](Cc1c[nH]c2ccc(F)cc12)NC(=O)[C@@H]1CSSC[C@H](NC(=O)[C@H](Cc2ccc(O)cc2)NC(=O)[C@H](CCC(C)C)NC(C)=O)C(=O)N[C@@H](C(C)(C)C)C(=O)NCC(=O)N[C@@H](CC2CCNCC2)C(=O)N[C@@H](CC2CCOCC2)C(=O)N[C@@H](CC(=O)O)C(=O)N[C@@H](C(C)C)C(=O)N[C@@H](Cc2ccc(O)cc2)C(=O)N1)[C@@H](C)c1ccccc1)C(C)(C)O)C(=O)O)C(C)C [Cpd #517, Ac-hLeu-Y-C-Tbg-G-PipAla-ThpA-D-V-Y-C-5FW-[(2S, 3S)beta-Me-Phe]-hydroxyVal-&Lys(Val-Met-AmBz-DOTA)-COOH] (Ac-[hLeu]YC[Tle]G[Ala(piperidin-4-yl)][Ala(4-THP)]DVYC[Trp(5-F)][X1][Val(3-OH)]-X6; disulfide 3-11) | < 1 |  |
| CSCC[C@H](NC(=O)c1ccc(CNC(=O)CN2CCN(CC(=O)O)CCN(CC(=O)O)CCN(CC(=O)O)CC2)cc1)C(=O)N[C@H](C(=O)N[C@@H](CCCCNC(=O)CC[C@@H]1NC(=O)[C@H](CC2CCNCC2)NC(=O)CNC(=O)[C@H](C(C)(C)C)NC(=O)[C@@H](NC(=O)[C@H](Cc2ccc(O)cc2)NC(=O)[C@H](CCC(C)C)NC(C)=O)CSSC[C@@H](C(=O)N[C@@H](Cc2c[nH]c3ccc(F)cc23)C(=O)N[C@H](C(=O)N[C@H](C(=O)N[C@H](CO)C(=O)O)C(C)(C)O)[C@@H](C)c2ccccc2)NC(=O)[C@H](Cc2ccc(O)cc2)NC(=O)[C@H](C(C)C)NC(=O)[C@H](CC(=O)O)NC1=O)C(=O)O)C(C)C [Cpd #518, Ac-hLeu-Y-C-Tbg-G-PipAla-Glu[&Lys(OH)-Val-Met-AmBz-DOTA]-D-V-Y-C-5FW-[(2S, 3S)beta-Me-Phe]-hydroxyVal-dSer-COOH] (Ac-[hLeu]YC[Tle]G[Ala(piperidin-4-yl)]E(X6)DVYC[Trp(5-F)][X1][Val(3-OH)][dS]-OH; disulfide 3-11) | < 1 |  |
| CSCC[C@H](NC(C)=O)C(=O)N[C@@H](Cc1ccc(O)cc1)C(=O)N[C@H]1CSSC[C@@H](C(=O)N[C@@H](Cc2c[nH]c3ccccc23)C(=O)N[C@@H](Cc2ccccc2)C(N)=O)NC(=O)[C@H](Cc2ccc(O)cc2)NC(=O)[C@H](C(C)C)NC(=O)[C@H](CC(=O)O)NC(=O)[C@H](Cc2ccc(O)cc2)NC(=O)[C@H](CCCCN)NC(=O)CNC(=O)[C@H](C(C)C)NC1=O [compound 1, Ac-M-Y-C-V-G-K-Y-D-V-Y-C-W-F-CONH2] (Ac-MYCVGKYDVYCWF-NH2; disulfide 3-11) | 100 to 300 | 100 to 300 |
| CCCC[C@H](NC(C)=O)C(=O)N[C@@H](Cc1ccc(O)cc1)C(=O)N[C@H]1CSSC[C@@H](C(=O)N[C@@H](Cc2c[nH]c3ccccc23)C(=O)N[C@@H](Cc2ccccc2)C(N)=O)NC(=O)[C@H](Cc2ccc(O)cc2)NC(=O)[C@H](C(C)C)NC(=O)[C@H](CC(=O)O)NC(=O)[C@H](Cc2ccc(C(=O)O)cc2)NC(=O)[C@H](CCCCN)NC(=O)CNC(=O)[C@H](C(C)C)NC1=O [compound 24, Ac-Nle-Y-C-V-G-K-4COOHPhe-D-V-Y-C-W-F-CONH2] (Ac-[Nle]YCVGK[Phe(4-COOH)]DVYCWF-NH2; disulfide 3-11) | 10 to 100 |  |
| CCCC[C@H](NC(C)=O)C(=O)N[C@@H](Cc1ccc(O)cc1)C(=O)N[C@H]1CSSC[C@@H](C(=O)N[C@@H](Cc2c[nH]c3ccccc23)C(=O)N[C@@H](Cc2ccccc2)C(N)=O)NC(=O)[C@H](Cc2ccc(O)cc2)NC(=O)[C@H](C(C)C)NC(=O)[C@H](CC(=O)O)NC(=O)[C@H](Cc2ccc(O)cc2)NC(=O)[C@H](CCCCN)NC(=O)CN(C)C(=O)[C@H](C(C)C)NC1=O [compound 26, Ac-Nle-Y-C-V-Sar-K-Y-D-V-Y-C-W-F-CONH2] (Ac-[Nle]YCV[Sar]KYDVYCWF-NH2; disulfide 3-11) | 10 to 100 | 10 to 100 |
| CCCC[C@H](NC(C)=O)C(=O)N[C@@H](Cc1ccc(O)cc1)C(=O)N[C@H]1CSSC[C@@H](C(=O)N[C@@H](Cc2c[nH]c3ccccc23)C(=O)N[C@@H](Cc2ccccc2)C(=O)N[C@H](C(=O)N[C@H](CCCCNC(=O)CN2CCN(CC(=O)O)CCN(CC(=O)O)CCN(CC(=O)O)CC2)C(=O)O)[C@@H](C)O)NC(=O)[C@H](Cc2ccc(O)cc2)NC(=O)[C@H](C(C)C)NC(=O)[C@H](CC(=O)O)NC(=O)[C@H](Cc2ccc(O)cc2)NC(=O)[C@H](CCCCN)NC(=O)CNC(=O)[C@H](C(C)C)NC1=O [compound 28, Ac-Nle-Y-C-V-G-K-Y-D-V-Y-C-W-F-Thr-dLys(DOTA)-COOH] (Ac-[Nle]YCVGKYDVYCWFT[dK](DOTA)-OH; disulfide 3-11) | 1 to 10 | 1 to 10 |
| CCCC[C@H](NC(C)=O)C(=O)N[C@@H](Cc1ccc(O)cc1)C(=O)N[C@H]1CSSC[C@@H](C(=O)N[C@@H](Cc2c[nH]c3ccccc23)C(=O)N[C@@H](Cc2ccccc2)C(=O)N[C@@H](CCC(=O)N[C@H](CCCCNC(=O)CN2CCN(CC(=O)O)CCN(CC(=O)O)CCN(CC(=O)O)CC2)C(N)=O)C(=O)O)NC(=O)[C@H](Cc2ccc(O)cc2)NC(=O)[C@H](C(C)C)NC(=O)[C@H](CC(=O)O)NC(=O)[C@H](Cc2ccc(O)cc2)NC(=O)[C@H](CCCCN)NC(=O)CNC(=O)[C@H](C(C)C)NC1=O [compound 31, Ac-Nle-Y-C-V-G-K-Y-D-V-Y-C-W-F-gE-dLys(DOTA)-CONH2] (Ac-[Nle]YCVGKYDVYCWF[γGlu][dK](DOTA)-NH2; disulfide 3-11) | 100 to 300 |  |
